We go through two compounds from patent US6613317B1, “Volatile attractants for diabrotica species” (priority 1988, dated 2003).

Marks after values point to notes of the source that are not given here.

The test system of test [1] is northern corn rootworm (NCR). Nature of the test: Sticky trap attraction in corn, phenylethanol analogues (Example 6). It counts as in vivo, Diabrotica barberi. Conditions: four replicates; for Mean number of NCR per trap (± standard deviation): 24 hour. The method in brief: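 Readout was mean adult Diabrotica catch per trap over about 24 h, analysed by ANOVA on log data with Duncan's multiple range test (P=0.05). Traps carried 100 mg or 100 μL attractant per wick unless stated otherwise, with untreated controls, in four randomised replicates 10 m apart on posts along corn fields.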

In test [2] the test system is southern corn rootworm (SCR) adults. Briefly: Sticky trap attraction in corn, estragole analogues (Example 3). Format: in vivo, Diabrotica undecimpunctata howardi. Conditions: 100 mg per trap, n = 4. The method in brief:
(§1)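 Cotton wicks dosed with 100 mg or 100 μL attractant per trap on TangleTrap-coated cartons, four replicates 10 m apart on 1 m posts at field edges of hybrid or sweet corn. Mean beetles caught after ~24 h; log-transformed ANOVA with Duncan's test, P=0.05.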

Test [3] has as its system D. v. virgifera. Nature of the test: Sticky trap attraction along hybrid corn, Pomology South Farms (Example 2). Format: in vivo, Diabrotica virgifera virgifera. As to conditions: 100 mg per trap, n = 4. The method in brief:
(§2)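 Lures (>98% purity) dosed at 100 mg per trap on cotton wicks atop TangleTrap-coated 1.0 liter cartons, solids dissolved in acetone; untreated wicks as controls. Four replicates placed 10 m apart on 1 m posts along a 0.8 ha hybrid corn field; mean beetles caught after 24-h, log-transformed ANOVA with Duncan's test.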

Test [4] concerns western corn rootworm (WCR) adults. Briefly: Sticky trap attraction in corn, estragole analogues (Example 3). It counts as in vivo, Diabrotica virgifera virgifera. As to conditions: 100 mg per trap, n = 4. The method in brief: as §1
Test [5] deals with D. barberi. Nature of the test: Sticky trap attraction along hybrid corn, Pomology South Farms (Example 2). It counts as in vivo, Diabrotica barberi. As to conditions: 100 mg per trap, n = 4. Summed up:
as §2

Where [6] appears, read: day 1 after single 100 mg dosage on cotton wick.
[7] abbreviates: day 2 after single 100 mg dosage on cotton wick.
Setting [8] is: day 3 after single 100 mg dosage on cotton wick.
Where [9] appears, read: day 4 after single 100 mg dosage on cotton wick.
Where [10] appears, read: day 5 after single 100 mg dosage on cotton wick.
Setting [11] is: day 6 after single 100 mg dosage on cotton wick.
Where [12] appears, read: day 7 after single 100 mg dosage on cotton wick.
[13] abbreviates: day 8 after single 100 mg dosage on cotton wick.
Where [14] appears, read: day 11 after single 100 mg dosage on cotton wick.

In the case of `OCC=Cc1ccccc1` [XVIII, cinnamyl alcohol], the “Mean number of NCR per trap (± standard deviation)” value was determined as 50.7 ± 50.9b per trap in test [1] (Table 16, 100 mg per trap); 3.5 ± 2.4a per trap in test [1] (Table 18, 1 mg); 4.0 ± 0.8ab per trap in test [1] (Table 18, 3 mg); 8.5 ± 2.1bc per trap in test [1] (Table 18, 10 mg); 15.2 ± 4.2c* per trap in test [1] (Table 18, 30 mg); 127.0 ± 24.2b per trap in test [1] (Table 20, 100 mg per trap). Further, the “Mean number (control subtracted) of NCR per trap” value in test [1] (setting [6]) was 52.0 per trap; in test [1] (setting [7]), 65.3 per trap; in test [1] (setting [8]), 17.3 per trap; in test [1] (setting [9]), 19.5 per trap; in test [1] (setting [10]), 17.7 per trap; in test [1] (setting [11]), 7.7 per trap. The “Mean number (control subtracted) of NCR per trap” value is 10.4 per trap in test [1] (setting [12]), 11.0 per trap in test [1] (setting [13]) and 9.8 per trap in test [1] (setting [14]). In test [2] (August 5 (Table 10)), the “Mean number of SCR per sticky trap after 24 hours” value is 14.5 ± 9.6^ab per sticky trap. The “Mean number of SCR (±standard deviation) per sticky trap after 24 hours” value in test [2] (August 7 (Table 11)) is 24.5 ± 13.6^b per sticky trap; in test [2] (August 18 (Table 11)), 1.8 ± 1.3^b per sticky trap. In addition, the “Mean number of D. v. virgifera per stick trap per day (±standard deviation) in corn” value in test [3] (August 7) is listed as 13.8 ± 10.2^a per stick trap per day; in test [3] (August 18), 3.3 ± 2.7^a per stick trap per day. The “Mean number of WCR per sticky trap after 24 hours” value in test [4] (August 5 (Table 10)) is listed as 16.5 ± 1.9^ab per sticky trap. Further, the “Mean number of WCR (±standard deviation) per sticky trap after 24 hours” value in test [4] (August 7 (Table 11)) is 13.8 ± 10.2^a per sticky trap; in test [4] (August 18 (Table 11)) it was 3.3 ± 1.7^a per sticky trap. The “Mean number of D. barberi per stick trap per day (±standard deviation) in corn” value in test [5] (August 7) is 8.5 ± 6.1^b per stick trap per day; in test [5] (August 18) it was 23.3 ± 5.9^c per stick trap per day.

For the compound `C=CCc1ccc(O)c(OC)c1` [XXIV, eugenol], the “Mean number (control subtracted) of NCR per trap” value in test [1] (setting [6]) is recorded as 88.2 per trap; in test [1] (setting [7]) it was 67.3 per trap; in test [1] (setting [8]), 14.3 per trap; in test [1] (setting [9]), 18.0 per trap; in test [1] (setting [10]), 20.7 per trap; in test [1] (setting [11]), 29.9 per trap. Also, the “Mean number (control subtracted) of NCR per trap” value in test [1] (setting [12]) was 30.2 per trap; in test [1] (setting [13]), 35.5 per trap; in test [1] (setting [14]) it was 10.0 per trap. The results for the “Mean number of SCR (±standard deviation) per sticky trap after 24 hours” value in test [2] (August 7 (Table 11)) and in test [2] (August 18 (Table 11)) were 6.2 ± 1.0^a per sticky trap and 0.0^a per sticky trap, respectively. Further, the figures for the “Mean number of D. v. virgifera per stick trap per day (±standard deviation) in corn” value in test [3] (August 7) and in test [3] (August 18) were 10.0 ± 2.9^a per stick trap per day and 2.8 ± 2.9^a per stick trap per day, respectively. In addition, the “Mean number of WCR (±standard deviation) per sticky trap after 24 hours” value in test [4] (August 7 (Table 11)) is given as 10.0 ± 2.9^a per sticky trap; in test [4] (August 18 (Table 11)), 2.7 ± 2.9^a per sticky trap. Moreover, the “Mean number of D. barberi per stick trap per day (±standard deviation) in corn” value is 5.8 ± 2.2^b per stick trap per day in test [5] (August 7) and 16.3 ± 5.7^b per stick trap per day in test [5] (August 18).
